Experimental findings from patent US9850225B2, “Compounds useful as immunomodulators” (BRISTOL-MYERS SQUIBB COMPANY, priority 2014, dated 2017) are described below.

The test addresses PD-1/PD-L1 interaction (PD-1-Ig / PD-L1-His) (Homo sapiens (Human), UniProt Q9NZQ7). Kind of test: PD-1/PD-L1 Homogenous Time-Resolved Fluorescence (HTRF) binding assay. The conditions noted are these: PD-1/PD-L1 HTRF binding assay, read-out: Range or IC50. A digest of the protocol: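 Human PD-L1-His (10 nM final) was pre-incubated with inhibitor for 15 min, then PD-1-Ig (20 nM final) was added for a further 15 min in dPBS with 0.1% BSA and 0.05% Tween-20. Binding was detected by HTRF using Eu-cryptate anti-Ig (1 nM) and APC anti-His (20 nM).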
In general terms: TR-FRET usually uses a lanthanide donor and a delayed reading to cut background.

Like-named read-outs stand apart in the source and are kept apart here.

PD-1/PD-L1 interaction (PD-1-Ig / PD-L1-His), sequence (Q9NZQ7 other isoform, or with tags, fused parts or gaps): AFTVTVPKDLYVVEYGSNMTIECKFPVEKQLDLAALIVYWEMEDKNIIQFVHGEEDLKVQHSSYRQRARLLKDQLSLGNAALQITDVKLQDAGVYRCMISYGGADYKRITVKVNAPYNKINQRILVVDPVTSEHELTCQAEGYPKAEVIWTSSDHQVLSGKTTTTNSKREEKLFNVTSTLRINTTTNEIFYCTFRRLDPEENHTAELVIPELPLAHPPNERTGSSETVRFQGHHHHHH

Consider `CC(=O)NCCNCc1ccc(OCc2cccc(-c3ccccc3)c2C)cc1OCc1cccc(OC(F)(F)F)c1` [Example 1082, N-(2-((4-((2-methyl-[1,1′-biphenyl]-3-yl)methoxy)-2-((3-(trifluoromethoxy)benzyl)oxy)benzyl)amino)ethyl)acetamide], for which the IC50 (numeric value) was 828 nM.

As to `CC(=O)NCCNCc1ccc(OCc2cccc(-c3ccccc3)c2C)cc1OCc1ccc2nc(C(F)(F)F)cc(Cl)c2c1` [Example 1083, N-(2-((2-((4-chloro-2-(trifluoromethyl)quinolin-6-yl)methoxy)-4-((2-methyl-[1,1′-biphenyl]-3-yl)methoxy)benzyl)amino)ethyl)acetamide], under “value given as range class”, the concentration for half-maximal inhibition (IC50) was 100 to 20000 nM.

Take `CC(=O)NCCNCc1ccc(OCc2cccc(-c3ccccc3)c2C)cc1OCc1ccc(S(C)(=O)=O)cc1` [Example 1084, N-(2-((4-((2-methyl-[1,1′-biphenyl]-3-yl)methoxy)-2-((4-(methylsulfonyl)benzyl)oxy)benzyl)amino)ethyl)acetamide]: for the setting “value given as range class”, the 50% inhibitory concentration (IC50) lay within 100 to 20000 nM.

Consider `CC(=O)NCCNCc1ccc(OCc2cccc(-c3ccccc3)c2C)cc1OCc1ccccc1OC(F)F` [Example 1085, N-(2-((2-((2-(difluoromethoxy)benzyl)oxy)-4-((2-methyl-[1,1′-biphenyl]-3-yl)methoxy)benzyl)amino)ethyl)acetamide], for which, where the note is “value given as range class”, the IC50 fell in the range of 100 to 20000 nM.

Turning to `COc1cccc(COc2cc(OCc3cccc(-c4ccccc4)c3C)ccc2CNCCNC(C)=O)c1` [Example 1086, N-(2-((2-((3-methoxybenzyl)oxy)-4-((2-methyl-[1,1′-biphenyl]-3-yl)methoxy)benzyl)amino)ethyl)acetamide], the IC50 (value given as range class) is 100 to 20000 nM.

Regarding `CC(=O)NCCNCc1ccc(OCc2cccc(-c3ccccc3)c2C)cc1OCc1ccccc1OC(F)(F)F` [Example 1087, N-(2-((4-((2-methyl-[1,1′-biphenyl]-3-yl)methoxy)-2-((2-(trifluoromethoxy)benzyl)oxy)benzyl)amino)ethyl)acetamide], the IC50 (value given as range class) lay in the range of 100 to 20000 nM.

Regarding `CC(=O)NCCNCc1ccc(OCc2cccc(-c3ccccc3)c2C)cc1OCc1ccc(OC(F)F)cc1` [Example 1088, N-(2-((2-((4-(difluoromethoxy)benzyl)oxy)-4-((2-methyl-[1,1′-biphenyl]-3-yl)methoxy)benzyl)amino)ethyl)acetamide], the IC50 (value given as range class) lay in the range of 100 to 20000 nM.

Regarding `CC(=O)NCCNCc1ccc(OCc2cccc(-c3ccccc3)c2C)cc1OCc1ccc(-c2ccccc2C#N)cc1` [Example 1089, N-(2-((2-((2′-cyano-[1,1′-biphenyl]-4-yl)methoxy)-4-((2-methyl-[1,1′-biphenyl]-3-yl)methoxy)benzyl)amino)ethyl)acetamide], the IC50 (value given as range class) is 100 to 20000 nM.

Regarding `COc1ccc(COc2cc(OCc3cccc(-c4ccccc4)c3C)ccc2CNCCNC(C)=O)cc1` [Example 1090, N-(2-((2-((4-methoxybenzyl)oxy)-4-((2-methyl-[1,1′-biphenyl]-3-yl)methoxy)benzyl)amino)ethyl)acetamide], the IC50 (value given as range class) was in the range of 100 to 20000 nM.

Regarding `CC(=O)NCCNCc1ccc(OCc2cccc(-c3ccccc3)c2C)cc1OCc1cc(F)cc(Cl)c1` [Example 1091, N-(2-((2-((3-chloro-5-fluorobenzyl)oxy)-4-((2-methyl-[1,1′-biphenyl]-3-yl)methoxy)benzyl)amino)ethyl)acetamide], where the note is “value given as range class”, the IC50 lay within 100 to 20000 nM.

As to `COc1ccc(F)c(COc2cc(OCc3cccc(-c4ccccc4)c3C)ccc2CNCCNC(C)=O)c1F` [Example 1092, N-(2-((2-((2,6-difluoro-3-methoxybenzyl)oxy)-4-((2-methyl-[1,1′-biphenyl]-3-yl)methoxy)benzyl)amino)ethyl)acetamide], the IC50 (value given as range class) fell in the range of 100 to 20000 nM.

In the case of `COc1cc(COc2cc(OCc3cccc(-c4ccccc4)c3C)ccc2CNCCNC(C)=O)ccc1F` [Example 1093, N-(2-((2-((4-fluoro-3-methoxybenzyl)oxy)-4-((2-methyl-[1,1′-biphenyl]-3-yl)methoxy)benzyl)amino)ethyl)acetamide], the IC50 (value given as range class) was 100 to 20000 nM.

Take `CC(=O)NCCNCc1ccc(OCc2cccc(-c3ccccc3)c2C)cc1OCc1cc(C)ccc1F` [Example 1094, N-(2-((2-((2-fluoro-5-methylbenzyl)oxy)-4-((2-methyl-[1,1′-biphenyl]-3-yl)methoxy)benzyl)amino)ethyl)acetamide]: where the note is “value given as range class”, the IC50 fell in the range of 100 to 20000 nM.

Turning to `CC(=O)NCCNCc1ccc(OCc2cccc(-c3ccccc3)c2C)cc1OCc1cc(C#N)ccc1F` [Example 1095, N-(2-((2-((5-cyano-2-fluorobenzyl)oxy)-4-((2-methyl-[1,1′-biphenyl]-3-yl)methoxy)benzyl)amino)ethyl)acetamide], the IC50 (numeric value) was determined as 81.2 nM.

With `COc1cc(F)cc(COc2cc(OCc3cccc(-c4ccccc4)c3C)ccc2CNCCNC(C)=O)c1` [Example 1096, N-(2-((2-((3-fluoro-5-methoxybenzyl)oxy)-4-((2-methyl-[1,1′-biphenyl]-3-yl)methoxy)benzyl)amino)ethyl)acetamide], the IC50 (value given as range class) lay within 100 to 20000 nM.

`CC(=O)NCCNCc1ccc(OCc2cccc(-c3ccccc3)c2C)cc1OCc1ccc(Br)cc1C#N` [Example 1097, N-(2-((2-((4-bromo-2-cyanobenzyl)oxy)-4-((2-methyl-[1,1′-biphenyl]-3-yl)methoxy)benzyl)amino)ethyl)acetamide]: where the note is “value given as range class”, the IC50 lay within 100 to 20000 nM.

Take `CC(=O)NCCNCc1ccc(OCc2cccc(-c3ccccc3)c2C)cc1OCc1ccc2[nH]ncc2c1` [Example 1098, N-(2-((2-((1H-indazol-5-yl)methoxy)-4-((2-methyl-[1,1′-biphenyl]-3-yl)methoxy)benzyl)amino)ethyl)acetamide]: where the note is “value given as range class”, the IC50 lay in the range of 100 to 20000 nM.

On to `CC(=O)NCCNCc1ccc(OCc2cccc(-c3ccccc3)c2C)cc1OCc1ccc2c(cnn2C2CCCCO2)c1` (stereo not shown) [Example 1099, N-(2-((4-((2-methyl-[1,1′-biphenyl]-3-yl)methoxy)-2-((1-(tetrahydro-2H-pyran-2-yl)-1H-indazol-5-yl)methoxy)benzyl)amino)ethyl)acetamide], for which the IC50 (value given as range class) lay in the range of 100 to 20000 nM.

Take `CC(=O)NCCNCc1ccc(OCc2cccc(-c3ccccc3)c2C)cc1OCc1ccncn1` [Example 1100, N-(2-((4-((2-methyl-[1,1′-biphenyl]-3-yl)methoxy)-2-(pyrimidin-4-ylmethoxy)benzyl)amino)ethyl)acetamide]: under “value given as range class”, the IC50 lay within 100 to 20000 nM.

For the molecule `COC(=O)Cc1cccc(COc2cc(OCc3cccc(-c4ccccc4)c3C)ccc2CNCCNC(C)=O)c1` [Example 1101, methyl 2-(3-((2-(((2-acetamidoethyl)amino)methyl)-5-((2-methyl-[1,1′-biphenyl]-3-yl)methoxy)phenoxy)methyl)phenyl)acetate], the IC50 (value given as range class) was 100 to 20000 nM.

For the molecule `CC(=O)NCCNCc1ccc(OCc2cccc(-c3ccccc3)c2C)cc1OCc1ccc2cn[nH]c2c1` [Example 1102, N-(2-((2-((1H-indazol-6-yl)methoxy)-4-((2-methyl-[1,1′-biphenyl]-3-yl)methoxy)benzyl)amino)ethyl)acetamide], where the note is “value given as range class”, the IC50 fell in the range of 100 to 20000 nM.

On to `COC(=O)c1ccc(F)c(COc2cc(OCc3cccc(-c4ccccc4)c3C)ccc2CNCCNC(C)=O)c1` [Example 1103, methyl 3-((2-(((2-acetamidoethyl)amino)methyl)-5-((2-methyl-[1,1′-biphenyl]-3-yl)methoxy)phenoxy)methyl)-4-fluorobenzoate], for which the IC50 (value given as range class) was 100 to 20000 nM.

Consider `CC(=O)NCCNCc1ccc(OCc2cccc(-c3ccccc3)c2C)cc1OCc1noc(C)n1` [Example 1104, N-(2-((2-((5-methyl-1,2,4-oxadiazol-3-yl)methoxy)-4-((2-methyl-[1,1′-biphenyl]-3-yl)methoxy)benzyl)amino)ethyl)acetamide], for which, where the note is “value given as range class”, the IC50 lay in the range of 100 to 20000 nM.

Take `CC(=O)NCCNCc1ccc(OCc2cccc(-c3ccccc3)c2C)cc1OCc1cccc(C(=O)OC(C)(C)C)c1` [Example 1105, tert-butyl 3-((2-(((2-acetamidoethyl)amino)methyl)-5-((2-methyl-[1,1′-biphenyl]-3-yl)methoxy)phenoxy)methyl)benzoate]: the IC50 (value given as range class) fell in the range of 100 to 20000 nM.

`CC(=O)NCCNCc1ccc(OCc2cccc(-c3ccccc3)c2C)cc1OCc1cc(F)cc(OC(F)(F)F)c1` [Example 1106, N-(2-((2-((3-fluoro-5-(trifluoromethoxy)benzyl)oxy)-4-((2-methyl-[1,1′-biphenyl]-3-yl)methoxy)benzyl)amino)ethyl)acetamide]: the IC50 (value given as range class) fell in the range of 100 to 20000 nM.

For the molecule `COc1cc(COc2cc(OCc3cccc(-c4ccccc4)c3C)ccc2CNCCNC(C)=O)cc(OC)c1` [Example 1107], the IC50 (value given as range class) fell in the range of 100 to 20000 nM.

As to `CC(=O)NCCNCc1ccc(OCc2cccc(-c3ccccc3)c2C)cc1OCc1ccc(F)c(C)c1` [Example 1108, N-(2-((2-((4-fluoro-3-methylbenzyl)oxy)-4-((2-methyl-[1,1′-biphenyl]-3-yl)methoxy)benzyl)amino)ethyl)acetamide], under “numeric value”, the half-inhibitory concentration (IC50) stood at 624 nM.

As for `CC(=O)NCCNCc1ccc(OCc2cccc(-c3ccccc3)c2C)cc1OCc1cc(Cl)ccc1F` [Example 1109], the IC50 (value given as range class) lay within 100 to 20000 nM.

As to `CC(=O)NCCNCc1ccc(OCc2cccc(-c3ccccc3)c2C)cc1OCc1ccc(F)c(Cl)c1` [Example 1110, N-(2-((2-((3-chloro-4-fluorobenzyl)oxy)-4-((2-methyl-[1,1′-biphenyl]-3-yl)methoxy)benzyl)amino)ethyl)acetamide], the IC50 (value given as range class) was in the range of 100 to 20000 nM.

With `CC(=O)NCCNCc1ccc(OCc2cccc(-c3ccccc3)c2C)cc1OCc1ccncc1` [Example 1111, N-(2-((4-((2-methyl-[1,1′-biphenyl]-3-yl)methoxy)-2-(pyridin-4-ylmethoxy)benzyl)amino)ethyl)acetamide], the IC50 (value given as range class) was 10 to 100 nM.

For `CC(=O)NCCNCc1ccc(OCc2cccc(-c3ccccc3)c2C)cc1OCc1cccc(-n2cccc2)c1` [Example 1112, N-(2-((2-((3-(1H-pyrrol-1-yl)benzyl)oxy)-4-((2-methyl-[1,1′-biphenyl]-3-yl)methoxy)benzyl)amino)ethyl)acetamide], the IC50 (value given as range class) was in the range of 100 to 20000 nM.

A word on the IC50: it is the concentration that gives 50% inhibition.
